# Data reported in patent publication US20240124460A1, “METHODS AND COMPOSITIONS FOR TARGETED PROTEIN DEGRADATION” (Ranok Therapeutics (Hangzhou) Co. Ltd., priority 2020, published 2024).
# Assays:
# [1] = test system: U-87 MG human glioblastoma; assay: U87 MG CCK-8 proliferation assay; assay type: cell-based; conditions: Homo sapiens, U-87 MG, 72 h, U-87 MG cells, read-out: U87MG CCK-8
# Method in brief: (§1)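 Cells cultured per ATCC recommendations and treated with 3-fold serial dilutions of compound from 20 μM to 1.02 nM. Viability by CCK-8 absorbance; % inhibition computed relative to DMSO-treated cells, with cell-free medium plus DMSO as blank.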
# [2] = test system: MV-4-11 human acute myeloid leukemia; assay: MV-4-11 CCK-8 proliferation assay; assay type: cell-based; conditions: Homo sapiens, MV4-11; MV-4-11 cells, 72 hr
# Method in brief: as §1
# HSP90α protein = target: T1, HSP90α protein (Homo sapiens, UniProt P07900); assay: HSP90α-binding FP (BODIPY) assay; conditions: FP competition with BODIPY-labeled RNK04010
# T1 construct: purchased BPS Bioscience #50298
# Experimental: Binding of test compounds to HSP90α protein was measured by fluorescent polarization (FP) using the HSP90α (N-terminal) Assay Kit (BPS Bioscience, #50298), following the manufacturer's instructions, except as noted. Fluorescently labeled HSP90-binding compounds, either the provided FITC-geldanamycin (5 nM final concentration) or RNK04010, a triazolone-based HSP90 binding small molecule labeled with BODIPY through a piperazine-phenyl linker (5 nM final concentration) were employed. A 2.5-fold serial dilution of each test compound ranging from 20 μM to 5.2 nM was assayed for binding to HSP90α. After the final step of adding HSP90α protein to each assay well, plates were mixed by brief shaking, incubated at 25° C. for 120 min for FITC-geldanamycin or 300 min for RNK04010, and fluorescence was measured using a PerkinElmer EnVision Plate Reader.
SMILES,EC50 [1] [nM],EC50 [2] [nM],IC50 (HSP90α protein) [nM]
"CCOc1cc(N2CCC(C(=O)N3CCC(CN4CCN(Cc5ccc(-n6c(C(N)=O)nnc6-c6cc(CC)c(O)cc6O)cc5)CC4)CC3)CC2)ccc1Nc1ncc2c(n1)N(C)c1ccccc1C(=O)N2C [Compound 034, 4-(4-((4-((1-(1-(4-((5,11-dimethyl-6-oxo-6,11-dihydro-5H-benzo[e]pyrimido[5,4-b][1,4]diazepin-2-yl)amino)-3-ethoxyphenyl)piperidine-4-carbonyl)piperidin-4-yl)methyl)piperazin-1-yl)methyl)phenyl)-5-(5-ethyl-2,4-dihydroxyphenyl)-4H-1,2,4-triazole-3-carboxamide]",100 to 1000,< 100,100 to 1000
"CCOc1cc(N2CCC(C(=O)N[C@H](C)c3ccc(CN4CCC(Cc5ccc(-n6c(O)nnc6-c6cc(C(C)C)c(O)cc6O)cc5)CC4)cc3)CC2)ccc1Nc1ncc2c(n1)N(C)c1ccccc1C(=O)N2C [Compound 045, (R)—N-(1-(4-((4-(4-(3-(2,4-dihydroxy-5-isopropylphenyl)-5-hydroxy-4H-1,2,4-triazol-4-yl)benzyl)piperidin-1-yl)methyl)phenyl)ethyl)-1-(4-((5,11-dimethyl-6-oxo-6,11-dihydro-5H-benzo[e]pyrimido[5,4-b][1,4]diazepin-2-yl)amino)-3-ethoxyphenyl)piperidine-4-carboxamide]",100 to 1000,< 100,100 to 1000
"CCOc1cc(N2CCC(C(=O)N3CCN(Cc4ccc(-n5c(O)nnc5-c5cc(C(C)C)c(O)cc5O)cc4C(F)(F)F)CC3)CC2)ccc1Nc1ncc2c(n1)N(C)c1ccccc1C(=O)N2C [Compound 046, 2-((4-(4-(4-(4-(3-(2,4-dihydroxy-5-isopropylphenyl)-5-hydroxy-4H-1,2,4-triazol-4-yl)-2-(trifluoromethyl)benzyl)piperazine-1-carbonyl)piperidin-1-yl)-2-ethoxyphenyl)amino)-5,11-dimethyl-5,11-dihydro-6H-benzo[e]pyrimido[5,4-b][1,4]diazepin-6-one]",100 to 1000,< 100,100 to 1000
"CCOc1cc(N2CCC(C(=O)N3CCN(Cc4ccc(-n5c(O)nnc5-c5cc(C)c(O)cc5O)cc4)CC3)CC2)ccc1Nc1ncc2c(n1)N(C)c1ccccc1C(=O)N2C [Compound 048, 2-((4-(4-(4-(4-(3-(2,4-dihydroxy-5-methylphenyl)-5-hydroxy-4H-1,2,4-triazol-4-yl)benzyl)piperazine-1-carbonyl)piperidin-1-yl)-2-ethoxyphenyl)amino)-5,11-dimethyl-5,11-dihydro-6H-benzo[e]pyrimido[5,4-b][1,4]diazepin-6-one]",100 to 1000,< 100,100 to 1000
"CCOc1cc(N2CCC(C(=O)N3CCN(Cc4ccc(-n5c(O)nnc5-c5cc(C(C)C)c(O)cc5O)cc4)[C@@H](C)C3)CC2)ccc1Nc1ncc2c(n1)N(C)c1ccccc1C(=O)N2C [Compound 055, (S)-2-((4-(4-(4-(4-(3-(2,4-dihydroxy-5-isopropylphenyl)-5-hydroxy-4H-1,2,4-triazol-4-yl)benzyl)-3-methylpiperazine-1-carbonyl)piperidin-1-yl)-2-ethoxyphenyl)amino)-5,11-dimethyl-5,11-dihydro-6H-benzo[e]pyrimido[5,4-b][1,4]diazepin-6-one]",100 to 1000,< 100,100 to 1000

# Other lines, results leading:
EC50 [1] [nM],EC50 [2] [nM],IC50 (HSP90α protein) [nM],SMILES
100 to 1000,< 100,100 to 1000,"CCOc1cc(N2CCC(C(=O)N3CCN(c4ccc(-n5c(O)nnc5-c5cc(C(C)C)c(O)cc5O)cc4)CC3)CC2)ccc1Nc1ncc2c(n1)N(C)c1ccccc1C(=O)N2C [Compound 023, 2-((4-(4-(4-(4-(3-(2,4-dihydroxy-5-isopropylphenyl)-5-hydroxy-4H-1,2,4-triazol-4-yl)phenyl)piperazine-1-carbonyl)piperidin-1-yl)-2-ethoxyphenyl)amino)-5,11-dimethyl-5,11-dihydro-6H-benzo[e]pyrimido[5,4-b][1,4]diazepin-6-one]"
< 100,< 100,< 100,"CCOc1cc(N2CCC(C(=O)NCC3CCN(C(=O)C4CCN(Cc5ccc(-n6c(O)nnc6-c6cc(C(C)C)c(O)cc6O)cc5)CC4)CC3)CC2)ccc1Nc1ncc2c(n1)N(C)c1ccccc1C(=O)N2C [Compound 041, N-((1-(1-(4-(3-(2,4-dihydroxy-5-isopropylphenyl)-5-hydroxy-4H-1,2,4-triazol-4-yl)benzyl)piperidine-4-carbonyl)piperidin-4-yl)methyl)-1-(4-((5,11-dimethyl-6-oxo-6,11-dihydro-5H-benzo[e]pyrimido[5,4-b][1,4]diazepin-2-yl)amino)-3-ethoxyphenyl)piperidine-4-carboxamide]"
< 100,< 100,< 100,"CCOc1cc(N2CCC(C(=O)N3CCC(CN4CCC(Cc5ccc(-n6c(O)nnc6-c6cc(C(C)C)c(O)cc6O)cc5)CC4)CC3)CC2)ccc1Nc1ncc2c(n1)N(C)c1ccccc1C(=O)N2C [Compound 044, 2-((4-(4-(4-((4-(4-(3-(2,4-dihydroxy-5-isopropylphenyl)-5-hydroxy-4H-1,2,4-triazol-4-yl)benzyl)piperidin-1-yl)methyl)piperidine-1-carbonyl)piperidin-1-yl)-2-ethoxyphenyl)amino)-5,11-dimethyl-5,11-dihydro-6H-benzo[e]pyrimido[5,4-b][1,4]diazepin-6-one]"
< 100,< 100,100 to 1000,"CCOc1cc(N2CCC(C(=O)N3CCN(Cc4ccc(-n5c(O)nnc5-c5cc(C(C)C)c(O)cc5O)cc4)[C@H](C)C3)CC2)ccc1Nc1ncc2c(n1)N(C)c1ccccc1C(=O)N2C [Compound 051, (R)-2-((4-(4-(4-(4-(3-(2,4-dihydroxy-5-isopropylphenyl)-5-hydroxy-4H-1,2,4-triazol-4-yl)benzyl)-3-methylpiperazine-1-carbonyl)piperidin-1-yl)-2-ethoxyphenyl)amino)-5,11-dimethyl-5,11-dihydro-6H-benzo[e]pyrimido[5,4-b][1,4]diazepin-6-one]"
< 100,< 100,< 100,"CCOc1cc(N2CCC(C(=O)N3CCC(N4CCN(Cc5ccc(-n6c(O)nnc6-c6cc(C(C)C)c(O)cc6O)cc5F)CC4)CC3)CC2)ccc1Nc1ncc2c(n1)N(S(C)(=O)=O)c1ccccc1C(=O)N2C [Compound 059, 2-((4-(4-(4-(4-(4-(3-(2,4-dihydroxy-5-isopropylphenyl)-5-hydroxy-4H-1,2,4-triazol-4-yl)-2-fluorobenzyl)piperazin-1-yl)piperidine-1-carbonyl)piperidin-1-yl)-2-ethoxyphenyl)amino)-5-methyl-11-(methylsulfonyl)-5,11-dihydro-6H-benzo[e]pyrimido[5,4-b][1,4]diazepin-6-one]"
< 100,< 100,< 100,"CCOc1cc(N2CCC(C(=O)N3CCC(CN4CCN(Cc5ccc(-n6c(C(N)=O)nnc6-c6cc(CC)c(O)cc6O)cc5)CC4)CC3)CC2)ccc1Nc1ncc2c(n1)N(S(C)(=O)=O)c1ccccc1C(=O)N2C [Compound 063, 4-(4-((4-((1-(1-(3-ethoxy-4-((5-methyl-11-(methylsulfonyl)-6-oxo-6,11-dihydro-5H-benzo[e]pyrimido[5,4-b][1,4]diazepin-2-yl)amino)phenyl)piperidine-4-carbonyl)piperidin-4-yl)methyl)piperazin-1-yl)methyl)phenyl)-5-(5-ethyl-2,4-dihydroxyphenyl)-4H-1,2,4-triazole-3-carboxamide]"
